melting point [°C] | SMILES
218 to 220 | O=C(N[C@H]1CCN(C(=O)c2cc(C(F)(F)F)cc(C(F)(F)F)c2)[C@H](Cc2ccc(Cl)cc2)C1)c1cc(=O)c2ccc(Cl)cc2o1
329 to 330 | O=c1[nH]c2cccnc2c2nc(-c3ccccc3)cn12
231 to 233 | CCCn1c(=O)c(N=O)c(N)n(CC2CCCCC2)c1=O
71 to 82 | COCC[C@H]1CN(C2=Nc3ccccc3Nc3ccc(C(F)(F)F)cc32)CCN1
304 to 306 | O=C1NC(=O)c2c1cc1ccc3c(c1c2-c1ccc(C(F)(F)F)cc1)OCO3
179 | CCCC1=C(C(=O)OCC)C(c2ccccc2N)c2c[nH]nc2N1 (stereo unspecified)
189 to 190 | Cc1nn(-c2cc(C(F)(F)F)ccc2Cl)cc1C(=O)N(CC(=O)O)c1ccc(OCC(C)(C)C)c(C#N)c1
179 to 180 | O=C(O)Cc1cscc1Nc1c(Cl)cccc1Cl
256 | O=C1Cc2cc(NC(=O)C(=O)O)ccc2N1
114 to 116 | Cc1ccc(C2CC(CN(C)C)Oc3ccccc32)cc1 (stereo unspecified)
136 to 141 | COc1ccc(-c2nnn(-c3ccc(F)cc3Cl)c2N)cc1
163 to 164 | O=CC(c1ccccc1)c1nc(-c2ccncc2)cs1 (stereo unspecified)
171 to 175 | CCOCc1nc2c(N)nc3ccccc3c2n1CCNC(=O)CCCCC1SCC2NC(=O)NC21 (stereo unspecified)
122 | CSC(C#N)c1cccc(C(=O)c2ccc(Cl)cc2)c1N (stereo unspecified)
> 250 | O=C1Nc2ccc(F)c(F)c2C(=O)N2CC[C@@H]12
116 to 118 | CN=C1N(C)C(=O)CN1c1ccccc1
189 to 190 | CSc1ccc(-c2n[nH]c(C(F)(F)F)c2-c2ccc(F)cc2)cc1
118 to 120 | CSCc1cn(C)c2ccccc2c1=O
104 to 105 | Cc1cccc(OCC(F)(F)F)c1N(Cc1cc[nH]n1)C(=O)CCl
> 230 | COCCNC(=O)c1ccc2c(c1)C(=NNc1ccc(S(N)(=O)=O)cc1)C(=O)N2
92 to 93 | NC(=O)CCc1cccc2c1C[C@@H](CCCCc1ccccc1)O2
280 | Cc1ccc(C(=O)c2c(O)c3cc(C)ccc3[nH]c2=S)cc1
203 to 205 | NC(=NO)c1ccncc1

melting point [°C] | SMILES
145 to 146 | COc1cc(COc2ncccc2CC(=O)O)ccc1OCc1nc(-c2ccccc2)oc1C
142 to 143 | COc1cc(C(C)=O)ccc1OCCCN1CCC(C(O)(c2ccc(F)cc2)c2ccc(F)cc2)CC1
182 to 183 | CCC(=O)CN1C(=O)C2(COc3cc4c(cc32)OCCO4)c2ccccc21 (stereo unspecified)
188 to 193 | c1ccc(Nc2ncc3cc4ccccc4n3n2)cc1
129 to 131 | CSc1cc(C)nc(SC)c1NC(=O)CCCCCCSc1nc2cccc(C(F)(F)F)c2o1
81 to 85 | CCN(CC)C(=O)Nc1ccccc1
218 | COc1cc(Cc2cnc(N)nc2N)cc(OC)c1Cl
172 to 173 | Cc1c(C(=O)O)ccc2c1C(O)CCS2(=O)=O (stereo unspecified)
68 to 70 | C[C@@H](O)c1nccc(N2CCN(Cc3ccccn3)CC2)n1
211 to 215 | CC1(C)CC(=O)Nc2ccc(-c3cccc(Cl)c3)cc21
234 to 235 | Cc1cccc(C(=O)NC(Nc2c(Nc3cccnc3Cl)c(=O)c2=O)C(C)(C)Cc2ccccc2)c1 (stereo unspecified)
136 to 137 | N#CC1=CC(CF)(CF)Oc2ccc([N+](=O)[O-])cc21
179 to 180 | COc1ccc(C(=O)c2c(Cl)cc(Cl)cc2Cl)cc1Cc1ccc(=O)[nH]n1
160 to 165 | Cc1c(N2C[C@H](CF)[C@H](N)C2)c(F)cc2c(=O)c(C(=O)O)cn(C3CC3)c12
240 | N#CC(C#N)=C1Sc2cnn(-c3ccccc3)c(=O)c2S1
123 to 125 | CCCCOc1ccc(-c2ccc3c(c2)C=C(C(=O)OC)CCS3(=O)=O)cc1
114 to 115 | OCc1sccc1C=Cc1csc2ccccc12
201 | O=C(NCc1ccc(Cl)c(Cl)c1)Nc1cccc2[nH]ccc12
218 to 220 | Cc1c(C)c2c(c(C)c1NC(=O)c1ccccc1)C(c1ccc(C(C)C)cc1)C(C)(C)O2 (stereo unspecified)
142 to 144 | C=C1C(C(=O)c2ccccc2)CC(O[Si](c2ccccc2)(c2ccccc2)C(C)(C)C)C1COC(c1ccccc1)(c1ccccc1)c1ccccc1 (stereo unspecified)
223 | Cc1ccc2c(c1)C=Cc1cc(C)ccc1C2c1cn(-c2ccnc(NC(Cc3c[nH]cn3)C(=O)O)n2)c(=O)[nH]c1=O (stereo unspecified)
148 to 149 | NNC(=O)c1ccc2c(c1)CCO2
160 to 162 | CCOC(=O)C=C(C)Nc1ccc2nc[nH]c2c1

melting point [°C] | SMILES
160 to 175 | CC1Oc2ccccc2C(O)C1n1ccnc1 (stereo unspecified)
245 to 248 | CC(=O)Nc1nnc(S(=O)(=O)Cc2ccccc2)o1
147 | CC(C)n1nc(-c2cc(C(C)(C)C)c(O)c(C(C)(C)C)c2)c2cccnc21
301 to 303 | CC(=O)OCCCOc1ccc2nc3c(cc2c1)NCN3
153 to 157 | CCCCc1nccn1Cc1ccc2oc(-c3ccccc3C(=O)O)cc2c1
192 to 195 | Cc1ccccc1[C@H]1O[C@H](CC(=O)O)C(=O)N(CC(C)C)c2ccccc21 (relative stereo)
127 to 129 | COC(=O)Cc1ccc(C(=O)CN2CCN(c3ccncc3)CC2)cc1
124 to 125 | CC(C)(C)OC(=O)N1CCN(c2ccc(Oc3cc(Cl)ccc3[N+](=O)[O-])cc2)CC1
108 to 116 | COc1cc(C2CCN(C[C@H](O)CO)CC2)ccc1Nc1ncc2ccc(-c3ccccc3N(C)S(C)(=O)=O)n2n1
172 to 173 | CN(C)C(=O)CC1Cc2ccccc2NC1=O (stereo unspecified)
89 to 90 | O=C1CCC(c2ccc(-c3ccc(Cl)c(Cl)c3)o2)O1 (stereo unspecified)
118 to 119 | C=CCn1c(C)c(C)c2cnnc(CCc3ccc(F)cc3F)c21
146 to 148 | COc1cc2c(=O)n(C)c(-c3ccc(OC4CCN(C5CCC5)CC4)cc3)nc2cn1
220 to 224 | O=C(Nc1ccc2ccc(-c3ccc(Cl)cc3)nc2n1)c1cccc(Br)c1
167 to 169 | O=C1Cc2ccccc2C(c2ccccc2F)N1 (stereo unspecified)
94 to 97 | FC(F)(F)c1nc(-c2ccccc2)c(-c2ccccc2)s1
274 to 276 | Fc1cc(Cn2ccnc2)cc2c1Cc1c(-c3ccsc3)n[nH]c1-2
190 to 193 | CCOCc1nc2c(N)nc(C)c(C)c2n1CC(C)(C)O
146 | CCN(CC)C(=O)CCc1nc(-c2ccccc2)nc2ccc(Br)cc12
191 to 194 | Cc1cc2c(-c3cccc(/C=C/C(=O)O)c3)c(CC(=O)Nc3ccc(Cl)cc3C(F)(F)F)c(=O)oc2cc1Cl
145 to 147 | O=C(NCN1CCN(c2ccccc2Cl)CC1)c1ccccc1

SMILES | melting point [°C]
CCCc1c(C(=O)C(C)C)c2ccc(C(N)=O)cc2n1Cc1ccccc1NC(C)=O | 235 to 236
CC(=O)C1CCC2C3CCC4CC(O)C(Cl)CC4(C)C3C(=O)CC12C (stereo unspecified) | 185 to 189
COC12CC(c3nnc(-c4cncc(Br)c4)o3)CN(C)C1Cc1cn(C)c3cccc2c13 (stereo unspecified) | 183 to 186
C#CC1(O)CCC2C3CCC4=CC(=O)CCC4C3C(=CF)CC21CC (stereo unspecified) | 169 to 180

Reference: a melting point compilation (Tetko et al.; mined from patent text by program, amines drawn as free bases though some values may be those of a salt)
